Test results as given in ChEMBL document CHEMBL1201862, “PubChem BioAssay data set” (2004).
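Step 1: Grow cells in 96-well plates. Step 2: Expose to compound for 48 hours at 5 concentrations. Step 3: Interpolate endpoints linearly; if unreached, use highest concentration. GI50 marks 50% less growth.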 Active and inactive are the calls of the source. Cut-off read from the data, not from the text of the source: active = GI50 up to about 1.1 µM and inactive = higher.

Columns and labels:
Test in all cases: DTP human tumour cell line panel, 48 h
SF-268 = system: SF-268
HOP-62 = system: HOP-62
MCF7 = system: MCF7
SK-MEL-5 = system: SK-MEL-5
HT-29 = system: HT-29
UACC-257 = system: UACC-257
SK-MEL-28 = system: SK-MEL-28
NCI-H226 = system: NCI-H226
UO-31 = system: UO-31
OVCAR-3 = system: OVCAR-3
EKVX = system: EKVX
Hs-578T = system: Hs-578T
HCT-15 = system: HCT-15
Malme-3M = system: Malme-3M
SW-620 = system: SW-620
K562 = system: K562
U-251 = system: U-251
A549 = system: A549
SK-MEL-2 = system: SK-MEL-2
HOP-92 = system: HOP-92

## O=[N+]([O-])C(=C1Nc2ccccc2N1)C(Cl)=C(Cl)Cl
SF-268
  GI50: 44.1 µM (inactive)
HOP-62
  GI50: > 100 µM (inactive)
MCF7
  GI50: 39.7 µM (inactive)
SK-MEL-5
  GI50: > 100 µM (inactive)
HT-29
  GI50: > 100 µM (inactive)
UACC-257
  GI50: > 100 µM (inactive)
SK-MEL-28
  GI50: > 100 µM (inactive)
NCI-H226
  GI50: > 100 µM (inactive)
UO-31
  GI50: 65 µM (inactive)
OVCAR-3
  GI50: 18.6 µM (inactive)
EKVX
  GI50: > 100 µM (inactive)
Hs-578T
  GI50: 49.8 µM (inactive)
HCT-15
  GI50: 38.2 µM
Malme-3M
  GI50: 30.3 µM (inactive)
SW-620
  GI50: > 100 µM (inactive)
K562
  GI50: 81.7 µM (inactive)
U-251
  GI50: > 100 µM (inactive)
A549
  GI50: > 100 µM (inactive)
SK-MEL-2
  GI50: > 100 µM (inactive)
HOP-92
  GI50: > 100 µM (inactive)

## C1CN(C23OC4(N5CCOCC5)C5C6CC(C7C6C4C72)C53)CCO1 (stereo not given)
SF-268
  GI50: > 100 µM (inactive)
HOP-62
  GI50: > 100 µM (inactive)
MCF7
  GI50: > 100 µM (inactive)
SK-MEL-5
  GI50: > 100 µM (inactive)
HT-29
  GI50: > 100 µM (inactive)
UACC-257
  GI50: > 100 µM (inactive)
SK-MEL-28
  GI50: > 100 µM (inactive)
NCI-H226
  GI50: > 100 µM (inactive)
UO-31
  GI50: > 100 µM (inactive)
OVCAR-3
  GI50: > 100 µM (inactive)
EKVX
  GI50: > 100 µM (inactive)
Hs-578T
  GI50: > 100 µM (inactive)
HCT-15
  GI50: > 100 µM
Malme-3M
  GI50: > 100 µM (inactive)
SW-620
  GI50: > 100 µM (inactive)
K562
  GI50: > 100 µM (inactive)
U-251
  GI50: > 100 µM (inactive)
A549
  GI50: > 100 µM (inactive)
SK-MEL-2
  GI50: > 100 µM (inactive)
HOP-92
  GI50: > 100 µM (inactive)
